Laboratory results reported in US12318398B2, “MST1 kinase inhibitor and use thereof” (priority 2018, dated 2025).

biological target: MST1 (Homo sapiens (Human), UniProt Q13043); test: In vitro enzyme activity test (ADP-GLO); assay type: biochemical; details: ATP 50 μM, 37° C. 1 hour, read-out: MST1 (IC50/μM)
Method: The IC50 values of the compounds against MST1 were determined. The protein kinase MST1 and the substrate were obtained from commercial sources.
5.4 μL of protein kinase MST1 diluted to a certain concentration (final concentration was 2.5 ng/μL) and 1 μL of serially diluted drug compounds and control compound XMU-MP-1 were taken to react at room temperature for 10 minutes (final drug concentrations were 10 μM, 1 μM, 0.3 μM, 0.1 μM, 0.03 μM, 0.01 μM, 0.003 μM, 0.001 μM, respectively).
6 μL of a mixture of ATP (with a final reaction concentration of 50 μM) and substrate was added to the above reaction tube to react at 37° C. for 1 hour. The reaction buffer was 40 mM Tris, 7.5; 20 mM MgCl2; 0.1 mg/ml BSA; 50 μM DTT.
5 μL of the kinase mixture after the reaction was taken to a 384-well plate, and 5 μL of ADP-GLO™ reagent was added thereto. After reaction at room temperature for 40 minutes, the kinase reaction was terminated and the remaining ATP was consumed.
10 μL of a kinase detection reagent was added to convert ADP into ATP, and a coupled luciferase/luciferin reaction was utilized to detect the newly synthesized ATP. Envision was used to read and plot the data, and calculate the IC50 value.

MST1, sequence (Q13043 whole entry): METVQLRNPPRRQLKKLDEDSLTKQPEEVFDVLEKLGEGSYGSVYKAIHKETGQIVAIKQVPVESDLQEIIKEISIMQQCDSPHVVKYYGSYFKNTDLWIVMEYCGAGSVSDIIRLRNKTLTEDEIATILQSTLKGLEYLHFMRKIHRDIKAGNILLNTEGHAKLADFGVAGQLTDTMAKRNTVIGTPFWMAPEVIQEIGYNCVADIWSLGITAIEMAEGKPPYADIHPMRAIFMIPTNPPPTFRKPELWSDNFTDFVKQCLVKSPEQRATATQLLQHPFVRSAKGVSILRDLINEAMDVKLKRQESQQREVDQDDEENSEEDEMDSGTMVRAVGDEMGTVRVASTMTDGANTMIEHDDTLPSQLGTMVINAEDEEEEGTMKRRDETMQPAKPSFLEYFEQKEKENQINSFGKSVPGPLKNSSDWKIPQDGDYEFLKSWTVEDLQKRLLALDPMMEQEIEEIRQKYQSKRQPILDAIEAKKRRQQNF

Row | SMILES | IC50 [µM]
1 | CN1C(=O)C2(CC2)N(C)c2nc(Nc3ccc(S(N)(=O)=O)cc3)ncc21 [Compound 7, 4-((5′,8′-dimethyl-6′-oxo-5′,8′-dihydro-6′H-spiro[cyclopropan-1,7′-pteridin]-2′-yl)amino)benzsulfamide] | 0.103
2 | CN1C(=O)C(c2cccc(F)c2)N(C)c2nc(Nc3ccc(S(N)(=O)=O)cc3)ncc21 (stereo not drawn) [Compound 11, 4-((7-(3-fluorophenyl)-5,8-dimethyl-6-oxo-5,6,7,8-tetrahydropteridin-2-yl)amino)benzsulfamide] | 0.134
3 | CN1C(=O)C2(CCCC2)N(C)c2nc(Nc3ccc(S(N)(=O)=O)cc3)ncc21 [Compound 14, 4-((5′,8′-dimethyl-6′-oxo-5′,8′-dihydro-6′H-spiro[cyclopentan-1,7′-pteridin]-2′-yl)amino)benzsulfamide] | 0.129
4 | CN1C(=O)C2(CCC2)N(C)c2nc(Nc3ccc(S(N)(=O)=O)cc3)ncc21 [Compound 15, 4-((5′,8′-dimethyl-6′-oxo-5′,8′-dihydro-6′H-spiro[cyclobutan-1,7′-pteridin]-2′-yl)amino)benzsulfamide] | 0.141
5 | CC(C)CC1C(=O)N(C)c2cnc(Nc3ccc(S(N)(=O)=O)cc3)nc2N1C (stereo not drawn) [Compound 16, 4-((7-isobutyl-5,8-dimethyl-6-oxo-5,6,7,8-tetrahydropteridin-2-yl)amino)benzsulfamide] | 0.0767
6 | CCCC1C(=O)N(C)c2cnc(Nc3ccc(S(N)(=O)=O)cc3)nc2N1C (stereo not drawn) [Compound 17, 4-((5,8-dimethyl-6-oxo-7-propyl-5,6,7,8-tetrahydropteridin-2-yl)amino)benzsulfamide] | 0.206
7 | CN1C(=O)C(C2CC2)N(C)c2nc(Nc3ccc(S(N)(=O)=O)cc3)ncc21 (stereo not drawn) [Compound 19, 4-((7-cyclopropyl-5,8-dimethyl-6-oxo-5,6,7,8-tetrahydropteridin-2-yl)amino)benzsulfamide] | 0.137
8 | CN1C(=O)C(c2cccs2)N(C)c2nc(Nc3ccc(S(N)(=O)=O)cc3)ncc21 (stereo not drawn) [Compound 20, 4-((5,8-dimethyl-6-oxo-7-(thien-2-yl)-5,6,7,8-tetrahydropteridin-2-yl)amino)benzsulfamide] | 0.0879
9 | CN1C(=O)C(c2ccccc2F)N(C)c2nc(Nc3ccc(S(N)(=O)=O)cc3)ncc21 (stereo not drawn) [Compound 21, 4-((7-(2-fluorophenyl)-5,8-dimethyl-6-oxo-5,6,7,8-tetrahydropteridin-2-yl)amino)benzsulfamide] | 0.0753
10 | CN1C(=O)C(c2ccccc2C(F)(F)F)N(C)c2nc(Nc3ccc(S(N)(=O)=O)cc3)ncc21 (stereo not drawn) [Compound 22, 4-((5,8-dimethyl-6-oxo-7-(2-(trifluoromethyl)phenyl)-5,6,7,8-tetrahydropteridin-2-yl)amino)benzsulfamide] | 0.0563
11 | CN1C(=O)C(c2c(F)cccc2F)N(C)c2nc(Nc3ccc(S(=O)(=O)NCC4CC4)cc3)ncc21 (stereo not drawn) [Compound 33, N-(cyclopropylmethyl)-4-((7-(2,6-difluorophenyl)-5,8-dimethyl-6-oxo-5,6,7,8-tetrahydropteridin-2-yl)amino)benzsulfamide] | 0.0796

same assay, conditions: read-out: MST1 (IC50/μM), ATP 50 μM, 37° C. 1 hour

Row | IC50 [µM] | SMILES
12 | 0.197 | CN1C(=O)[C@H](c2ccccc2)N(C)c2nc(Nc3ccc(S(N)(=O)=O)cc3)ncc21 [Compound 4, (S)-4-((5,8-dimethyl-6-oxo-7-phenyl-5,6,7,8-tetrahydropteridin-2-yl)amino)benzsulfamide]
13 | 0.143 | CN1C(=O)C(c2ccccc2)N(C)c2nc(Nc3ccc(S(=O)(=O)NC4CC4)cc3)ncc21 (stereo not drawn) [Compound 6, N-cyclopropyl-4-((5,8-dimethyl-6-oxo-7-phenyl-5,6,7,8-tetrahydropteridin-2-yl)amino)benzsulfamide]
14 | 0.0987 | CN1C(=O)[C@@H](c2ccccc2)N(C)c2nc(Nc3ccc(S(N)(=O)=O)cc3)ncc21 [Compound 10, (R)-4-((5,8-dimethyl-6-oxo-7-phenyl-5,6,7,8-tetrahydropteridin-2-yl)amino)benzsulfamide]
15 | 0.0227 | Cc1ccccc1C1C(=O)N(C)c2cnc(Nc3ccc(S(N)(=O)=O)cc3)nc2N1C (stereo not drawn) [Compound 25, 4-((5,8-dimethyl-6-oxo-7-(o-methylphenyl)-5,6,7,8-tetrahydropteridin-2-yl)amino)benzsulfamide]
16 | 0.113 | CN1C(=O)C(c2c(F)cccc2F)N(C)c2nc(Nc3ccc(S(=O)(=O)NC4CC4)cc3)ncc21 (stereo not drawn) [Compound 27, N-cyclopropyl-4-((7-(2,6-difluorophenyl)-5,8-dimethyl-6-oxo-5,6,7,8-tetrahydropteridin-2-yl)amino)benzsulfamide]
17 | 0.0316 | CN1C(=O)C(c2c(F)cccc2F)N(C)c2nc(Nc3ccc(S(=O)(=O)N(C)C4CC4)cc3)ncc21 (stereo not drawn) [Compound 32, N-cyclopropyl-4-((7-(2,6-difluorophenyl)-5,8-dimethyl-6-oxo-5,6,7,8-tetrahydropteridin-2-yl)amino)-N-methylbenzsulfamide]
18 | 0.0516 | CCNS(=O)(=O)c1ccc(Nc2ncc3c(n2)N(C)C(c2c(F)cccc2F)C(=O)N3C)cc1 (stereo not drawn) [Compound 38, 4-((7-(2,6-difluorophenyl)-5,8-dimethyl-6-oxo-5,6,7,8-tetrahydropteridin-2-yl)amino)-N-ethylbenzsulfamide]
